Values quoted from earlier work in patent US20030114415A1, “Compositions and methods for treating and preventing memory impairment using citicoline” (priority 2001, published 2003).
Like-named read-outs stand apart in the source and are kept apart here.

Columns and labels:
[1] = human; 1000 mg citicoline per day
[2] = rat; 500 mg/kg/day citicoline
[3] = system: stroke and head trauma patients

C[N+](C)(C)CCOP(=O)(O)OP(=O)([O-])OC[C@H]1O[C@@H](n2ccc(N)nc2=O)[C@H](O)[C@@H]1O [citicoline, cytidine-5′-diphosphocholine]
plasma choline concentration [1]: 1.5 ng/mL
plasma choline concentration [2]: 1.5 ng/mL
absorption when administered orally (oral): absorbed almost completely
bioavailability when administered orally (oral compared with intravenous): approximately the same as when administered intravenously
negative side effects, including dizziness ([3]; patients, 500 mg per day): minimizing any negative side effects
tolerability ([3]; stroke and head trauma patients, 250 mg/day to 1000 mg/day for several weeks): tolerated citicoline well
